{"source": "patent US6849426B2", "about": "“Methods and reagents for detecting endotoxin” (Cambrex Bio Science Walkersville, Inc., priority 2001, dated 2005)", "format_in_all_cases": "biochemical", "key": {"[1]": {"biological_target": "T1, recombinant Factor C (rFC) (Carcinoscorpius rotundicauda, UniProt Q26422)", "T1 construct": "made in house; host or cells: Sf9 insect cells, baculovirus", "T1 sequence (Q26422 26-1019)": "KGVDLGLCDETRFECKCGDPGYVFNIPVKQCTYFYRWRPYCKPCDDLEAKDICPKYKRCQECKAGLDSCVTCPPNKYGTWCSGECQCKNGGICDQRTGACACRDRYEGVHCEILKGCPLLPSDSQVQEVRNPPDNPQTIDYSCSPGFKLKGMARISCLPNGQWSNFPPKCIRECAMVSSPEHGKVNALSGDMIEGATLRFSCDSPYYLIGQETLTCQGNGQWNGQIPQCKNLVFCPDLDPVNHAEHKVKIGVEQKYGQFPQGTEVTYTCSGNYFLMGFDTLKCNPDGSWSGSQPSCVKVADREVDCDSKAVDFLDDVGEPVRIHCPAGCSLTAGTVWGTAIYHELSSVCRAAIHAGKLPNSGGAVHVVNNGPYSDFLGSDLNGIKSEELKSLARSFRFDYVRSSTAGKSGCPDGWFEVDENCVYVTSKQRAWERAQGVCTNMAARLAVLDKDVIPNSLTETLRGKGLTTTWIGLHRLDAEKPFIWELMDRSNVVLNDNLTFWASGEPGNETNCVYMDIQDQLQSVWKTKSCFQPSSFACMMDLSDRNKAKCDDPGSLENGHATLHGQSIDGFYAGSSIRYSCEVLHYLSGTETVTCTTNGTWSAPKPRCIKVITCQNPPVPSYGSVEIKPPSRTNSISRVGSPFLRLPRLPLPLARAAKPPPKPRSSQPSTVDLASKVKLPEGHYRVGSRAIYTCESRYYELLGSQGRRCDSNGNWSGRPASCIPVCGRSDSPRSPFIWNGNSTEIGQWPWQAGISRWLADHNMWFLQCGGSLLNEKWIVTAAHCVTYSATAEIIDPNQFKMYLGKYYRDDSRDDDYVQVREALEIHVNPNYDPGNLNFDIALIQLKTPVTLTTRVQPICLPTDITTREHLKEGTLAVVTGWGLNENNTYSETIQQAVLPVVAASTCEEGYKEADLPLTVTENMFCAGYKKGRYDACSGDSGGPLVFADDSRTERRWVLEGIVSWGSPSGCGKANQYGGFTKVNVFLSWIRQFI", "experiment": "recombinant Factor C (rFC) assay with different detergents", "conditions": "for Detergent concentration range for rFC inhibition / Detergent concentration range for rFC enhancing: 1 EU/ml EC-6, DPR-coumarin substrate, 38° C., data after 30 minutes; for enhancing concentration range (narrow or wide): rFC assay", "protocol": "The recombinant Factor C (rFC) assay was carried out using 20 μl of each detergent (˜10× of final concentration), 150 μl of 1 EU/ml EC-6, 10 μl of rFC supernatant 031901I, 20 μl of 300 mM Tris, pH 8.0, and 20 μl of 0.55 mM DPR-coumarin substrate. The results of the assay were read at 38° C. using a Cytofluor reader set at 390/440 nm, 5 minutes per cycle, for 1 hour. The data were graphed after 30 minutes."}, "[2]": {"test_system": "purified Limulus factor C", "experiment": "Limulus Factor C activity at different Zwittergent concentrations", "conditions": "FIG. 6; compared with recombinant Factor C assay", "protocol": "The enhancing/inhibiting effect of Zwittergent 3-14 was also tested using purified Limulus factor C (FIG. 6).\nWe isolated the factor C from Limulus and generated antisera against the protein. The Limulus lysate was first separated with a S-100 gel filtration followed by cation-ion exchange column. The fractions were assayed for factor C activity using the N-t-BOC-Val-Pro-Arg 7-Amido-4-methyl coumarin substrate. The Limulus factor C was purified 73 fold with 80% homogeneity as determined by enzyme assay and SDS-PAGE. The molecular weight of Limulus factor C was 117 kDa by SDS-PAGE under non-reducing conditions. […] A specific polyclonal antibody against the Limulus factor C was generated in rabbits. The anti-factor C purified IgG inhibited the activation of factor C by LPS but had no effect on the protease activity once the factor C was activated by LPS."}, "[3]": {"biological_target": "T2, recombinant Carcinoscorpius rotundicauda Factor C (Carcinoscorpius rotundicauda, UniProt Q26422)", "T2 construct": "made in house; host or cells: Sf9 insect cells, baculovirus (pFASTBAC1 bacmid); culture supernatant used without purification", "T2 sequence (Q26422 26-1019)": "T1 sequence (Q26422 26-1019)", "experiment": "two-step and one-step endotoxin assay (Examples 1 and 13)", "conditions": "assay of Examples 1 and 13", "protocol": "Endotoxin was pre-incubated with culture medium containing recombinant Carcinoscorpius rotundicauda Factor C obtained from recombinant Factor C-producing Sf9 cells for 1 hour in assay buffer (30 mM Tris, pH 8.0, 30 mM NaCl, 0.3% lactose, and 0.0025% Zwittergent 3-14). The substrate N-t-Boc-Asp(Obzl)-Pro-Arg-7-Amido-4-methyl coumarin (DPR-coumarin) was added to the mixture to a final concentration of […]. The fluorescence generated from the cleavage of the substrate by activated Factor C was measured after 15-20 minutes. Results of a similar assay carried out using the substrate N-t-Boc-Val-Pro-Arg-7-Amido-4-methyl coumarin at a final concentration of 100 mM are shown in FIG. 5.\nA one-step endotoxin assay can be carried out in a 96-well plate, using 100 μl each of blank and endotoxin standards. […] The plate is incubated at 37° C. for 1 hour. Excitation and emission are read at 390 and 440 nm, respectively, in a fluorescence microplate reader."}, "Recombinant Factor C": {"biological_target": "T3, Recombinant Factor C (Carcinoscorpius rotundicauda, UniProt Q26422)", "T3 construct": "made in house; host or cells: Sf9 insect cells, baculovirus", "T3 sequence (Q26422 26-1019)": "T1 sequence (Q26422 26-1019)", "experiment": "one-step, 1-hour endpoint endotoxin assay with or without surfactant", "conditions": "assay buffer with or without 0.0125% Zwittergent; endotoxin 055:B5 0.01-10 EU/ml; FIG. 7", "protocol": "A one-step, 1-hour endpoint assay was performed. Endotoxin 055:B5, 0.01, 0.1, 1, and 10 EU/ml were used for the standard curve. Blank and endotoxin standards (100 μl each) were added to a 96-well plate. […] This mixture was added into each blank and endotoxin standard. The fluorescence was recorded at time zero and time 1 hour. The difference in fluorescences (delta fluorescence) were normalized with the blank. Normalized delta fluorescence was then graphed against endotoxin concentration in a log-log scale. Each data point is the result of duplicate assays."}}, "data": [{"molecule": "CCCCCCCCS[C@@H]1O[C@H](CO)[C@@H](O)[C@H](O)[C@H]1O", "note": "[OTG, octyl-beta-D-thioglucoside]", "values": [{"measurement": "Detergent concentration range for rFC inhibition", "setting": "[1]", "value": ">=0.5%"}, {"measurement": "enhancing concentration range (narrow or wide)", "setting": "[1]", "value": "narrow"}]}, {"molecule": "CCCCCCCCCCCCOS(=O)(=O)[O-].[Na+]", "note": "[SDS]", "values": [{"measurement": "Detergent concentration range for rFC inhibition", "setting": "[1]", "value": ">=0.0004%"}]}, {"molecule": "CCCCCCCCCCCCCC[N+](C)(C)CCCS(=O)(=O)[O-]", "note": "[Zwittergent 3-14, N-tetradecyl-N,N-dimethyl-3-ammonio-1-propanesulfonate]", "values": [{"measurement": "enhancing/inhibiting effect on purified Limulus factor C", "setting": "[2]", "value": "A similar enhancing/inhibiting effect was observed"}, {"measurement": "optimal concentration of the surfactant", "setting": "[3]", "value": 0.0025, "unit": "%"}, {"measurement": "increase of endotoxin detection sensitivity when surfactant was included", "setting": "Recombinant Factor C", "value": 10, "unit": "fold"}, {"measurement": "Detergent concentration range for rFC inhibition", "setting": "[1]", "value": ">=0.004%"}, {"measurement": "enhancing concentration range (narrow or wide)", "setting": "[1]", "value": "narrow"}]}, {"molecule": "Triton X-100", "values": [{"measurement": "Detergent concentration range for rFC inhibition", "setting": "[1]", "value": ">=0.008%"}, {"measurement": "enhancing concentration range (narrow or wide)", "setting": "[1]", "value": "narrow"}]}, {"molecule": "polyoxyethylene (20) sorbitan monolaurate [Tween 20]", "values": [{"measurement": "Detergent concentration range for rFC enhancing", "setting": "[1]", "value": "0.001-0.5%"}, {"measurement": "Detergent concentration range for rFC inhibition", "setting": "[1]", "value": ">0.5", "unit": "%"}, {"measurement": "enhancing concentration range (narrow or wide)", "setting": "[1]", "value": "wide"}]}, {"molecule": "polyoxyethylene (20) sorbitan monooleate [Tween 80]", "values": [{"measurement": "Detergent concentration range for rFC enhancing", "setting": "[1]", "value": "0.001-0.25%"}, {"measurement": "Detergent concentration range for rFC inhibition", "setting": "[1]", "value": ">0.25", "unit": "%"}, {"measurement": "enhancing concentration range (narrow or wide)", "setting": "[1]", "value": "wide"}]}]}
